# Data taken from patent US20260015436A1, “ANTIBODIES FOR CHELATED RADIONUCLIDES” (Hoffmann-La Roche Inc., priority 2018, published 2026).
# What was measured:
# BxPC3 tumors = test: Protocol 95: TCMC saturation, CA amount and ^212Pb activity on tumor-associated radioactivity; format: in vivo, mice; settings: no clearing agent
# From the text: In this study, nine different clearing agents based on dextran-500 were compared in terms of inhibition of ^212Pb-DOTAM association to tumors. More specifically, the experiment assessed the impact on tumor-associated radioactivity from i) TCMC saturation, ii) clearing agent-to-antibody ratio, and iii) production/purification method. In addition, the tumor uptake was compared after injection of 10 or 30 μCi of ^212Pb-DOTAM, without pretargeting or CA, to assess whether radioactivity saturation of the tumor was achieved already at the lower dose.
# PRIT-0165 (100 μg per 100 μL) was administered i.v., followed three days later by dextran-500-based clearing reagents (10-170 μg per 100 μL) with varying TCMC substitution (10-100%). Groups J and K received PBS instead of clearing agent. Two hours later, mice were injected i.v. with 100 μL of the respective ^212Pb-DOTAM solutions (10 or 30 μCi).
# Mice were sacrificed and necropsied 24 hours after injection of ^212Pb-DOTAM. Blood, bladder, spleen, kidneys, liver, lung, muscle, tail, and tumors were collected, weighed and measured for radioactivity content, and the % ID/g subsequently calculated.
# WSU-DLCL2 tumors = test: Protocol 162: CD20-PRIT efficacy; format: in vivo, SCID mice; settings: multiple injections of 20 μCi (PRIT); result in words
# Experimental: The aim of this study was to show proof-of-concept of the treatment regimen developed for CEA-PRIT directed against an alternative target: cluster of differentiation 20 (CD20). The therapeutic efficacy was evaluated after 3 cycles of CD20-PRIT in mice bearing subcutaneous WSU-DLCL2 tumors. Comparisons were also made with: 1-step CD20-RIT, using BsAbs that were pre-incubated with ^212Pb-DOTAM before injection; with rituximab, a type I monoclonal antibody directed against CD20 and a reference in treatment of CD20+ diseases; and with GA101, a type II monoclonal antibody also directed against CD20.
# Animals were treated according to the experimental schedule illustrated in FIG. 59. Solid WSU-DLCL2 xenografts were established in SCID mice aged 8 weeks on study day 0 by subcutaneous injection of 1.5×10^5 cells into the right flank. […]
# Mice in groups H, I, and L were sacrificed and necropsied for biodistribution purposes 24 hours after their first and only injection of ^212Pb-DOTAM or ^212Pb-DOTAM-BsAb; groups J and K were sacrificed and necropsied 24 hours after their second and third ^212Pb-DOTAM injection, respectively. […] Collected samples were weighed and then measured for radioactivity using a 2470 WIZARD^2 automatic gamma counter (PerkinElmer), and the percent injected dose per gram of tissue (% ID/g) subsequently calculated, including corrections for decay and background. […]
smiles,measurement,setting,value
NC(=O)CN1CCN(CC(N)=O)CCN(CC(N)=O)CCN(CC(N)=O)CC1.[212Pb+2] [^212Pb-DOTAM],"tumor accumulation (±SD, n=3)",BxPC3 tumors; 10 μCi,72.38±10.83 % ID/g
same,"tumor accumulation (±SD, n=3)",BxPC3 tumors; 30 μCi,107.74±14.71 % ID/g
same,BW development,WSU-DLCL2 tumors,well tolerated
